These results are taken from ChEMBL document CHEMBL1145569, “Design, synthesis, and evaluation of inhibitors of cathepsin L: Exploiting a unique thiocarbazate chemotype” (Bioorg Med Chem Lett, 2008).

Active and inactive are the calls of the source. The rule behind the calls is not given here.

This experiment concerns the target Procathepsin L (Homo sapiens, UniProt P07711). Briefly: Inhibition of human cathepsin L.

The compound `CC(C)(C)OC(=O)N[C@@H](Cc1c[nH]c2ccccc12)C(=O)NNC(=O)OCC(=O)N1CCCc2ccccc21` showed an IC50 of 7 nM. `COC(=O)CSC(=O)NNC(=O)[C@H](Cc1c[nH]c2ccccc12)NC(=O)OC(C)(C)C`: the IC50 is 201 nM. With `CCc1ccccc1NC(=O)CSC(=O)NNC(=O)CCc1c[nH]c2ccccc12`, the IC50 stood at 21800 nM. Turning to `CC(C)(C)OC(=O)N[C@@H](Cc1c[nH]c2ccccc12)C(=O)NNC(=O)CCC(=O)N1CCCc2ccccc21`, the outcome was inactive. Turning to `CCc1ccccc1NC(=O)CSC(=O)NNC(=O)CNC(=O)OC(C)(C)C`, the result was inactive. `CC(C)(C)OC(=O)N[C@@H](Cc1c[nH]c2ccccc12)C(=O)NNC(=O)NCC(=O)N1CCCc2ccccc21` yielded an IC50 of 3000 nM.

Compound `CC(C)(C)OC(=O)N[C@@H](Cc1c[nH]c2ccccc12)C(=O)NNC(=O)SCC(=O)N1CCCc2ccccc21` displayed an IC50 of 41 nM. In turn, `CCc1ccccc1NC(=O)CSC(=O)NNC(=O)[C@H](Cc1ccccc1)NC(=O)OC(C)(C)C` had an IC50 of 115 nM.

`CC(C)(C)OC(=O)N[C@@H](Cc1c[nH]c2ccccc12)C(=O)NNC(=O)SC1CCN(c2ccccc2)C1=O` (some centres undefined) registered an IC50 of 110 nM.
